Experiments:
factor VIII = test: Activity of factor VIII after addition of complexing agent to eluted solution from SP Sepharose FF, COATEST chromogenic assay; format: biochemical; conditions: Example 8; for Factor VIII activity (%): 0 h without additive = 100
Description: Tests without EDTA present were carried out for comparison.
(§1) A conditioned medium (containing human serum albumin) from a different harvest than the previous Examples, was clarified and buffered with NH4 Ac. […] After elution, various amounts of EDTA were added to the resulting solution. Tests without EDTA present were carried out for comparison. The procoagulant activity of factor VIII was determined after storage at ambient temperature for up to 246 hours, in accordance to the procedure described in Example 5.
as §1, with “28” for “246”
A conditioned medium (containing human serum albumin) from a different harvest than the previous Examples, was clarified and buffered with NH4 Ac. The resulting solution was loaded onto a column containing SP SEPHAROSE® FF. This cation-exchange chromatography step was performed at 10° C. […] After elution, EDTA or 1,10-Phenanthroline were added to the resulting solution.

[1] = tested on: metal-dependent proteases; test: Protease assay with resorufin-labeled casein in harvest solution (conditioned medium); format: biochemical, Chinese Hamster; conditions: for Mean absorbance corrected: blank subtracted
Description: The method chosen was a protease assay with casein which was resorufin-labeled. By treatment with proteases, resorufin-labeled peptides are released from the casein. The concentration of these resorufin-labeled peptides in the supernatant is a measure of the proteolytic activity present. The test sample was incubated at 37° C. for a period of time which was dependent upon the sample at issue. The absorption wave-length chosen was 574 run throughout the tests. […]
Preincubation of the conditioned medium with or without EDTA was conducted at 37° C. for 2 h. After the addition of substrate, further incubation was carried out for 17 h. The pH in the incubation mixture was 7.5.
Absorbance corrected, refers to the absorption after subtraction of the blank value.
Conditioned medium (containing human serum albumin) was clarified and imidazole subsequently added in an amount ranging from 3.6 mM up to 360 mM.
Conditioned medium (containing human serum albumin) was clarified and histidine subsequently added in an amount ranging from 0.14 mM to 13.6 mM.

[2] = 5 mM Phenanthroline, incubation 4.5 h ambient
[3] = 5 mM Phenanthroline, incubation 7.5 h ambient
[4] = 5 mM Phenanthroline, incubation 24 h ambient
[5] = 11 mM Phenanthroline, incubation 4.5 h ambient
[6] = 11 mM Phenanthroline, incubation 7.5 h ambient
[7] = 11 mM Phenanthroline, incubation 24 h ambient

c1cnc2c(c1)ccc1cccnc12 [Phenanthroline, 1,10-Phenanthroline]
Factor VIII activity (IU/ml) (factor VIII; [2]): 750 IU/ml
Factor VIII activity (%) (factor VIII; [2]): 84%
Factor VIII activity (IU/ml) (factor VIII; [3]): 964 IU/ml
Factor VIII activity (%) (factor VIII; [3]): 109%
Factor VIII activity (IU/ml) (factor VIII; [4]): 933 IU/ml
Factor VIII activity (%) (factor VIII; [4]): 105%
Factor VIII activity (IU/ml) (factor VIII; [5]): 869 IU/ml
Factor VIII activity (%) (factor VIII; [5]): 98%
Factor VIII activity (IU/ml) (factor VIII; [6]): 996 IU/ml
Factor VIII activity (%) (factor VIII; [6]): 112%
Factor VIII activity (IU/ml) (factor VIII; [7]): 916 IU/ml
Factor VIII activity (%) (factor VIII; [7]): 103%

N[C@@H](Cc1c[nH]cn1)C(=O)O [Histidine, L-histidine]
Mean absorbance ([1]; 0.14 mM histidine): 2561
Protease activity (%) ([1]; 0.14 mM histidine): 79%
Mean absorbance corrected ([1]; 0.14 mM histidine): 1591
Mean absorbance ([1]; 0.7 mM histidine): 2857
Protease activity (%) ([1]; 0.7 mM histidine): 94%
Mean absorbance corrected ([1]; 0.7 mM histidine): 1887
Mean absorbance ([1]; 1.4 mM histidine): 3153
Protease activity (%) ([1]; 1.4 mM histidine): 108%
Mean absorbance corrected ([1]; 1.4 mM histidine): 2183
Mean absorbance ([1]; 7 mM histidine): 1495
Protease activity (%) ([1]; 7 mM histidine): 26%
Mean absorbance corrected ([1]; 7 mM histidine): 525
Mean absorbance ([1]; 13.6 mM histidine): 1684
Protease activity (%) ([1]; 13.6 mM histidine): 35%
Mean absorbance corrected ([1]; 13.6 mM histidine): 714

c1c[nH]cn1 [imidazole]
Mean absorbance ([1]; 3.6 mM imidazole): 2891
Protease activity (%) ([1]; 3.6 mM imidazole): 95%
Mean absorbance corrected ([1]; 3.6 mM imidazole): 1921
Mean absorbance ([1]; 18 mM imidazole): 2985
Protease activity (%) ([1]; 18 mM imidazole): 100%
Mean absorbance corrected ([1]; 18 mM imidazole): 2015
Mean absorbance ([1]; 36 mM imidazole): 3190
Protease activity (%) ([1]; 36 mM imidazole): 110%
Mean absorbance corrected ([1]; 36 mM imidazole): 2220
Mean absorbance ([1]; 180 mM imidazole): 1258
Protease activity (%) ([1]; 180 mM imidazole): 14%
Mean absorbance corrected ([1]; 180 mM imidazole): 288
Mean absorbance ([1]; 360 mM imidazole): 1143
Protease activity (%) ([1]; 360 mM imidazole): 9%
Mean absorbance corrected ([1]; 360 mM imidazole): 173

From patent publication US5831026A, “Process for purifying factor VIII” (Pharmacia & Upjohn AB, priority 1994, dated 1998)
